# Source: patent publication US10206399B2, “Herbicidal composition comprising uracil compound as active ingredient” (Dongbu Farm Hannong Co., Ltd., priority 2012, dated 2019)
# Where two headings read alike, the source gives them in different places.
# How the values were obtained:
# ryegrass = assay: Nonselective composition of 1 uracil compound and 2 herbicidally active compounds, plant mortality; type: in vivo
# Excerpt: (§1) X is % damage by uracil compound (a) of formula 1 at the rate of application of p kg/ha; Y is % damage by conventional herbicidal compound (b) at the rate of application of q kg/ha; and E is the expected damage caused by compounds (a) and (b) at a rate of application of p and q kg/ha.
# (§2) The expected activity for a given combination of two herbicides can be calculated using equation 1 above.
# wild amaranth = assay: as above; type: in vivo
# Excerpt: as §1, §2
# Echinochloa crus = details: for plant mortality, measured value: Echinochloa crus
# Excerpt: as §1, §2
# Digitaria sanguinalis = details: for plant mortality, measured value: Digitaria sanguinalis
# Excerpt: as §1, §2
# Abutilon theophrasti = details: for plant mortality, measured value: Abutilon theophrasti
# Excerpt: as §1, §2
# Aeschynomene indica = details: for plant mortality, measured value: Aeschynomene indica
# Excerpt: as §1, §2
# Xanthium spinosum = details: for plant mortality, measured value: Xanthium spinosum
# Excerpt: as §1, §2
# [1] = 480 h, read-out: ryegrass mortality (measured value)
# [2] = Amaranthus caudatus, 480 h, read-out: Wild amaranth mortality (measured value)
compound,measurement,setting,value
CCOCN(C(=O)CCl)c1c(C)cccc1CC [Acetochlor],pest or weed control at 375 g/ha,ryegrass; [1],30%
same,pest or weed control at 375 g/ha,wild amaranth; [2],10%
CC(C)N.O=C(O)CNCP(=O)(O)O [Glyphosate-IPA],ryegrass mortality (measured value),ryegrass; 300 g ai/ha,10
same,Wild amaranth mortality (measured value),wild amaranth; 300 g ai/ha,10
COc1cc(OC)nc(NC(=O)NS(=O)(=O)c2ncccc2OCC(F)(F)F)n1 [Trifloxysulfuron],Data (measured value) Echinochloa crus,Echinochloa crus; 1.25 g/ha,8
same,"plant mortality, measured value",Echinochloa crus; 1.25 g/ha,8
same,Data (measured value) Echinochloa crus,Echinochloa crus; 5 g/ha,56
same,"plant mortality, measured value",Echinochloa crus; 5 g/ha,56
same,Data (measured value) Digitaria sanguinalis,Digitaria sanguinalis; 1.25 g/ha,8
same,"plant mortality, measured value",Digitaria sanguinalis; 1.25 g/ha,8
same,Data (measured value) Digitaria sanguinalis,Digitaria sanguinalis; 5 g/ha,51
same,"plant mortality, measured value",Digitaria sanguinalis; 5 g/ha,51
same,Data (measured value) Abutilon theophrasti,Abutilon theophrasti; 1.25 g/ha,12
same,"plant mortality, measured value",Abutilon theophrasti; 1.25 g/ha,12
same,Data (measured value) Abutilon theophrasti,Abutilon theophrasti; 5 g/ha,61
same,"plant mortality, measured value",Abutilon theophrasti; 5 g/ha,61
same,Data (measured value) Aeschynomene indica,Aeschynomene indica; 1.25 g/ha,9
same,"plant mortality, measured value",Aeschynomene indica; 1.25 g/ha,9
same,Data (measured value) Aeschynomene indica,Aeschynomene indica; 5 g/ha,58
same,"plant mortality, measured value",Aeschynomene indica; 5 g/ha,58
same,Data (measured value) Xanthium spinosum,Xanthium spinosum; 1.25 g/ha,13
same,"plant mortality, measured value",Xanthium spinosum; 1.25 g/ha,13
same,Data (measured value) Xanthium spinosum,Xanthium spinosum; 5 g/ha,62
same,"plant mortality, measured value",Xanthium spinosum; 5 g/ha,62
Cc1cc(Cl)ccc1OCCCC(=O)O [MCPB],"plant mortality, measured value",Echinochloa crus; 75 g/ha,9
same,"plant mortality, measured value",Echinochloa crus; 150 g/ha,27
same,"plant mortality, measured value",Echinochloa crus; 300 g/ha,57
same,"plant mortality, measured value",Digitaria sanguinalis; 75 g/ha,12
same,"plant mortality, measured value",Digitaria sanguinalis; 150 g/ha,25
same,"plant mortality, measured value",Digitaria sanguinalis; 300 g/ha,56
same,"plant mortality, measured value",Abutilon theophrasti; 75 g/ha,11
same,"plant mortality, measured value",Abutilon theophrasti; 150 g/ha,22
same,"plant mortality, measured value",Abutilon theophrasti; 300 g/ha,52
same,"plant mortality, measured value",Aeschynomene indica; 75 g/ha,13
same,"plant mortality, measured value",Aeschynomene indica; 150 g/ha,32
same,"plant mortality, measured value",Aeschynomene indica; 300 g/ha,64
same,"plant mortality, measured value",Xanthium spinosum; 75 g/ha,12
same,"plant mortality, measured value",Xanthium spinosum; 150 g/ha,27
same,"plant mortality, measured value",Xanthium spinosum; 300 g/ha,58
CC(Oc1ccc(Oc2ccc(Cl)cc2Cl)cc1)C(=O)O (stereo not shown) [Diclofop],pest or weed control at 175 g/ha,ryegrass; [1],30%
same,pest or weed control at 175 g/ha,wild amaranth; [2],0%
COC(=O)NS(=O)(=O)c1ccc(N)cc1 [Asulam],pest or weed control at 1250 g/ha,ryegrass; [1],25%
same,pest or weed control at 1250 g/ha,wild amaranth; [2],20%
CCC(CC)Nc1c([N+](=O)[O-])cc(C)c(C)c1[N+](=O)[O-] [Pendimethalin],pest or weed control at 250 g/ha,ryegrass; [1],30%
same,pest or weed control at 250 g/ha,wild amaranth; [2],20%
O=C(Nc1ccc(F)cc1)c1cccc(Oc2cccc(C(F)(F)F)c2)n1 [Picolinafen],ryegrass mortality (measured value),ryegrass; 25 g ai/ha,0
same,Wild amaranth mortality (measured value),wild amaranth; 25 g ai/ha,25
Nc1cc(Cl)nc(C(=O)O)c1Cl [Aminopyralid],ryegrass mortality (measured value),ryegrass; 250 g ai/ha,0
same,Wild amaranth mortality (measured value),wild amaranth; 250 g ai/ha,20
"O=C(O)COc1ccc(Cl)cc1Cl [2,4-D]",Data (measured value) Echinochloa crus,Echinochloa crus; 100 g/ha,0
same,"plant mortality, measured value",Echinochloa crus; 100 g/ha,0
same,"plant mortality, measured value",Echinochloa crus; 200 g/ha,0
same,"plant mortality, measured value",Echinochloa crus; 400 g/ha,0
same,Data (measured value) Digitaria sanguinalis,Digitaria sanguinalis; 100 g/ha,0
same,"plant mortality, measured value",Digitaria sanguinalis; 100 g/ha,0
same,"plant mortality, measured value",Digitaria sanguinalis; 200 g/ha,0
same,"plant mortality, measured value",Digitaria sanguinalis; 400 g/ha,0
same,Data (measured value) Abutilon theophrasti,Abutilon theophrasti; 100 g/ha,7
same,"plant mortality, measured value",Abutilon theophrasti; 100 g/ha,7
same,"plant mortality, measured value",Abutilon theophrasti; 200 g/ha,21
same,"plant mortality, measured value",Abutilon theophrasti; 400 g/ha,47
same,Data (measured value) Aeschynomene indica,Aeschynomene indica; 100 g/ha,7
same,"plant mortality, measured value",Aeschynomene indica; 100 g/ha,7
same,"plant mortality, measured value",Aeschynomene indica; 200 g/ha,24
same,"plant mortality, measured value",Aeschynomene indica; 400 g/ha,51
same,Data (measured value) Xanthium spinosum,Xanthium spinosum; 100 g/ha,10
same,"plant mortality, measured value",Xanthium spinosum; 100 g/ha,10
same,"plant mortality, measured value",Xanthium spinosum; 200 g/ha,22
same,"plant mortality, measured value",Xanthium spinosum; 400 g/ha,50
CCOC1Oc2ccc(OS(C)(=O)=O)cc2C1(C)C (stereo not shown) [Ethofumesate],pest or weed control at 250 g/ha,ryegrass; [1],25%
same,pest or weed control at 250 g/ha,wild amaranth; [2],20%
Cc1cc(Cl)ccc1OCC(=O)O [MCPA],Data (measured value) Echinochloa crus,Echinochloa crus; 75 g/ha,0
same,Data (measured value) Echinochloa crus,Echinochloa crus; 150 g/ha,0
same,Data (measured value) Echinochloa crus,Echinochloa crus; 300 g/ha,0
same,Data (measured value) Digitaria sanguinalis,Digitaria sanguinalis; 75 g/ha,0
same,Data (measured value) Digitaria sanguinalis,Digitaria sanguinalis; 150 g/ha,0
same,Data (measured value) Digitaria sanguinalis,Digitaria sanguinalis; 300 g/ha,0
same,Data (measured value) Abutilon theophrasti,Abutilon theophrasti; 75 g/ha,11
same,Data (measured value) Abutilon theophrasti,Abutilon theophrasti; 150 g/ha,32
same,Data (measured value) Abutilon theophrasti,Abutilon theophrasti; 300 g/ha,64
same,Data (measured value) Aeschynomene indica,Aeschynomene indica; 75 g/ha,11
same,Data (measured value) Aeschynomene indica,Aeschynomene indica; 150 g/ha,24
same,Data (measured value) Aeschynomene indica,Aeschynomene indica; 300 g/ha,58
same,Data (measured value) Xanthium spinosum,Xanthium spinosum; 75 g/ha,8
same,Data (measured value) Xanthium spinosum,Xanthium spinosum; 150 g/ha,25
same,Data (measured value) Xanthium spinosum,Xanthium spinosum; 300 g/ha,59
CC1(C)CON(Cc2ccccc2Cl)C1=O [Clomazone],pest or weed control at 175 g/ha,ryegrass; [1],15%
same,pest or weed control at 175 g/ha,wild amaranth; [2],30%
